Tests used:
HSP70b mRNA [1] = experiment: Cellular expression of HSP-70 mRNA in Hela cells (real-time PCR); assay type: cell-based; settings: fold induction of HSP-70b mRNA relative to the vehicle treated control; 4 hours; normalized to 18S rRNA
Procedure: (§1) Experiments set forth in this section were conducted to determine whether the compounds of the present invention are able to elevate the expression of HSP-70 gene in cells.
(§2) Hela cell-line or primary mixed neurons derived from neonatal rat cerebellum were employed. Induction was carried out for the indicated dose(s) for 4 hours duration and total RNA was isolated. Expression of HSP70b mRNA along-with expression of 18S rRNA was monitored by real-time PCR. HSP70b mRNA expression was normalized relative to the expression of 18S rRNA.
(§3) The results for test compounds were expressed as fold induction of HSP-70 mRNA relative to vehicle treated control and are as shown in Table 2 & 3.

TNF-α mRNA = experiment: Inhibition of LPS-induced TNF-α expression in PMA differentiated THP-1 cells; assay type: cell-based, Human; settings: LPS (1 ug/ml) and compound for 4 hours, LPS alone as 100%
Procedure: The purpose of the present study was to determine the inhibition of lipopolysaccharide(LPS)-induced TNF-α expression in phorbol merstyl ester (PMA) differentiated THP-1 cells.
Human monocytic leukaemia cell line (THP-1), differentiated into macrophage-like cells by PMA treatment was employed. Differentiated cells were treated with either LPS (1 ug/ml) alone or with LPS (1 ug/ml) and compound for 4 hours. Total RNA was isolated and expression of TNF-αmRNA along-with expression of 18S rRNA was monitored by real-time PCR. TNF-α mRNA expression was normalized relative to the expression of 18S rRNA Considering TNF-α expression for cells treated with LPS alone as 100%; the results for test compounds were expressed as % inhibition of TNF-α expression and are as shown in Table 4

HSP70b mRNA [2] = experiment: Cellular expression of HSP-70 mRNA in primary mixed neurons (real-time PCR); assay type: cell-based; settings: fold induction of HSP70b mRNA relative to vehicle treated control; primary mixed neurons from neonatal rat cerebellum; 4 hours; normalized to 18S rRNA
Procedure: as §1, §2, §3

Structure (SMILES): CCOC(=O)N1CC(=Cc2ccccn2)C(=O)C(C)(C)C1Cc1ccc(OC)cc1 (stereo not shown) [Compound 13, 2-(4-Methoxy-benzyl)-3,3-dimethyl-4-oxo-5-[1-pyridin-2-yl-methylidene]-piperidine-1-carboxylic acid ethyl ester]
- HSP Induction in Hela cells (HSP70b mRNA [1]): (+++) (193-1536 fold)

Structure (SMILES): COc1ccc(CC2N(C(=O)Oc3ccccc3)CC(=Cc3ccccn3)C(=O)C2(C)C)cc1 (stereo not shown) [Compound 14, 2-(4-Methoxy-benzyl)-3,3-dimethyl-4-oxo-5-[1-pyridin-2-yl-methylidene]-piperidine-1-carboxylic acid phenyl ester]
- HSP Induction in Hela cells (HSP70b mRNA [1]): (+++) (193-1536 fold)

Structure (SMILES): COc1ccc(CC2N(C(=O)OCC(C)C)CC(=Cc3ccccn3)C(=O)C2(C)C)cc1 (stereo not shown) [Compound 15, 2-(4-Methoxy-benzyl)-3,3-dimethyl-4-oxo-5-[1-pyridin-2-yl-methylidene]-piperidine-1-carboxylic acid isobutyl ester]
- HSP Induction in Hela cells (HSP70b mRNA [1]): (++++) (>1536 fold)

Structure (SMILES): COc1ccc(CC2N(C(=O)C(C)(C)C)CC(=Cc3ccccn3)C(=O)C2(C)C)cc1 (stereo not shown) [Compound 16, 1-(2,2-Dimethyl-propionyl)-2-(4-methoxy-benzyl)-3,3-dimethyl-5-[1-pyridin-2-yl-methylidene]-piperidin-4-one]
- HSP Induction in Hela cells (HSP70b mRNA [1]): (++++) (>1536 fold)
- TNF-alpha Inhibition (TNF-α mRNA): (++++) (>80%)

Structure (SMILES): COc1ccc(CC2N(C(=O)Nc3c(C)cccc3C)CC(=Cc3ccccn3)C(=O)C2(C)C)cc1 (stereo not shown) [Compound 17, 2-(4-Methoxy-benzyl)-3,3-dimethyl-4-oxo-5-[1-pyridin-2-yl-methylidene]-piperidine-1-carboxylic acid (2,6-dimethyl-phenyl)-amde]
- HSP Induction in Hela cells (HSP70b mRNA [1]): (++) (25-192 fold)

Structure (SMILES): CC1(C)CN(Cc2ccccc2)CC(=Cc2cccc(N3CCOCC3)n2)C1=O [Compound 20, 1-Benzyl-3,3-dimethyl-5-[1-(6-morpholin-4-yl-pyridin-2-yl)-methylidene]-piperidin-4-one]
- HSP Induction in Hela cells (HSP70b mRNA [1]): (+++) (193-1536 fold)
- TNF-alpha Inhibition (TNF-α mRNA): (++) (41-60%)

Structure (SMILES): CC1(C)CN(Cc2ccccc2)CC(=Cc2cccc(N3CCCCC3)n2)C1=O [Compound 23, 1-Benzyl-3,3-dimethyl-5-[1-(3,4,5,6-tetrahydro-2H-[1,2′]bipyridinyl-6′-yl)-methylidene]-piperidin-4-one]
- HSP Induction in Hela cells (HSP70b mRNA [1]): (+++) (193-1536 fold)

Structure (SMILES): CC1(C)CN(Cc2ccccc2)C(c2ccccc2)C(=Cc2ccccn2)C1=O (stereo not shown) [Compound 25, 1-Benzyl-5,5-dimethyl-2-phenyl-3-[1-pyridin-2-yl-methylidene]-piperidin-4-one]
- HSP Induction in Hela cells (HSP70b mRNA [1]): (++++) (>1536 fold)

Structure (SMILES): CC1(C)CN(Cc2ccccc2)C(c2ccccn2)C(=Cc2cccc(N3CCOCC3)n2)C1=O (stereo not shown) [Compound 28, 1-Benzyl-5,5-dimethyl-3-[1-(6-morpholin-4-yl-pyridin-2-yl)-methylidene]-2,3,5,6-tetrahydro-1H-[2,2′]bipyridinyl-4-one]
- HSP Induction in Hela cells (HSP70b mRNA [1]): (++++) (>1536 fold)

Structure (SMILES): CC1(C)CN(Cc2ccccc2)C(c2ccccn2)C(=Cc2ccccn2)C1=O (stereo not shown) [Compound 29, 1-Benzyl-5,5-dimethyl-3-[1-pyridin-2-yl-methylidene]-2,3,5,6-tetrahydro-1H-[2,2′]bipyridinyl-4-one]
- HSP Induction in Hela cells (HSP70b mRNA [1]): (+++) (193-1536 fold)

Structure (SMILES): CSc1ccc(C=C2C(=O)C(C)(C)CN(Cc3ccccc3)C2c2ccccc2)cc1 (stereo not shown) [Compound 30, 1-Benzyl-5,5-dimethyl-3-[1-(4-methylsulfanyl-phenyl)-methylidene]-2-phenyl-piperidin-4-one]
- HSP Induction in Hela cells (HSP70b mRNA [1]): (+) (4-24 fold)

Structure (SMILES): CC1(C)CN(Cc2ccccc2)C(c2ccccc2)C(=Cc2cccc(N3CCOCC3)n2)C1=O (stereo not shown) [Compound 31, 1-Benzyl-5,5-dimethyl-3-[1-(6-morpholin-4-yl-pyridin-2-yl)-methylidene]-2-phenyl-piperidin-4-one]
- HSP Induction in Hela cells (HSP70b mRNA [1]): (++) (25-192 fold)

Structure (SMILES): CC1(C)CN(Cc2ccccc2)C(c2cccs2)C(=Cc2cccc(N3CCOCC3)n2)C1=O (stereo not shown) [Compound 33, 1-Benzyl-5,5-dimethyl-3-[1-(6-morpholin-4-yl-pyridin-2-yl)-methylidene]-2-thiophen-2-yl-piperidin-4-one]
- HSP Induction in Hela cells (HSP70b mRNA [1]): (+++) (193-1536 fold)

Structure (SMILES): CC1(C)CN(Cc2ccccc2)C(c2ccccn2)C(=Cc2cccc(N3CCCCC3)n2)C1=O (stereo not shown) [Compound 34, 1-Benzyl-5,5-dimethyl-3-[1-(3,4,5,6-tetrahydro-2H-[1,2′]bipyridinyl-6′-yl)-methylidene]-2,3,5,6-tetrahydro-1H-[2,2′]bipyridinyl-4-one]
- HSP Induction in Hela cells (HSP70b mRNA [1]): (++) (25-192 fold)

Structure (SMILES): CC1(C)CN(C(=O)Oc2ccccc2)CC(=Cc2cccc(N3CCCCC3)n2)C1=O [Compound 35, 3,3-Dimethyl-4-oxo-5-[1-(3,4,5,6-tetrahydro-2H-[1,2′]bipyridinyl-6′-yl)-methylidene]-piperidine-1-carboxylic acid phenyl ester]
- HSP Induction in Hela cells (HSP70b mRNA [1]): (++++) (>1536 fold)

Structure (SMILES): CC1(C)CN(C(=O)Oc2ccccc2)CC(=Cc2cccc(N3CCOCC3)n2)C1=O [Compound 36, 3,3-Dimethyl-5-[1-(6-morpholin-4-yl-pyridin-2-yl)-methylidene]-4-oxo-piperidine-1-carboxylic acid phenyl ester]
- HSP Induction in Hela cells (HSP70b mRNA [1]): (++++) (>1536 fold)

Structure (SMILES): CC1(C)CN(Cc2ccccc2)CC(=Cc2nc3ccccc3c(=O)[nH]2)C1=O [Compound 37, 2-[1-Benzyl-5,5-dimethyl-4-oxo-piperidin-3-ylidenemethyl]-3H-quinazolin-4-one]
- HSP Induction in Hela cells (HSP70b mRNA [1]): (++++) (>1536 fold)

Structure (SMILES): CC1(C)CN(CCc2cccs2)CC(=Cc2ccccn2)C1=O [Compound 79, 3,3-Dimethyl-5-[1-pyridin-2-yl-methylidene]-1-(2-thiophen-2-yl-ethyl)-piperidin-4-one]
- HSP Induction in mixed neuron (HSP70b mRNA [2]): (+++) (9-16 fold)
- TNF-alpha Inhibition (TNF-α mRNA): (++++) (>80%)

Structure (SMILES): CC1(C)CN(Cc2ccco2)C(c2ccccc2)C(=Cc2ccccn2)C1=O (stereo not shown) [Compound 82, 1-Furan-2-ylmethyl-5,5-dimethyl-2-phenyl-3-[1-pyridin-2-yl-methylidene]-piperidin-4-one]
- HSP Induction in mixed neuron (HSP70b mRNA [2]): (+++) (9-16 fold)
- TNF-alpha Inhibition (TNF-α mRNA): (++++) (>80%)

Structure (SMILES): CN1CC(C)(C)C(=O)C(=Cc2ccccn2)C1c1ccccc1 (stereo not shown) [Compound 85, 1,5,5-Trimethyl-2-phenyl-3-[1-pyridin-2-yl-methylidene]-piperidin-4-one]
- HSP Induction in mixed neuron (HSP70b mRNA [2]): (++) (5-8 fold)
- TNF-alpha Inhibition (TNF-α mRNA): (+) (21-40%)

Structure (SMILES): COc1cc(C2C(=Cc3ccccn3)C(=O)C(C)(C)CN2Cc2ccco2)cc(OC)c1OC (stereo not shown) [Compound 90, 1-Furan-2-ylmethyl-5,5-dimethyl-3-[1-pyridin-2-yl-methylidene]-2-(3,4,5-trimethoxy-phenyl)-piperidin-4-one]
- HSP Induction in mixed neuron (HSP70b mRNA [2]): (+) (2-4 fold)
- TNF-alpha Inhibition (TNF-α mRNA): (++) (41-60%)

Structure (SMILES): O=C1C(=Cc2cccc(N3CCOCC3)n2)C(=O)N(Cc2ccccc2)CC1c1ccccc1 (stereo not shown) [Compound 103, 1-Benzyl-3-[1-(6-morpholin-4-yl-pyridin-2-yl)-methylidene]-5-phenyl-piperidine-2,4-dione]
- HSP Induction in mixed neuron (HSP70b mRNA [2]): (+) (2-4 fold)
- TNF-alpha Inhibition (TNF-α mRNA): (+) (21-40%)

Structure (SMILES): CC1(C)C(=O)C(=Cc2ccccn2)CN(C(=S)Nc2ccccc2)C1c1ccc(S(C)(=O)=O)cc1 (stereo not shown) [Compound 105, 2-(4-Methanesulfonyl-phenyl)-3,3-dimethyl-4-oxo-5-[1-pyridin-2-yl-methylidene]-piperidine-1-carbothioic acid phenylamide]
- HSP Induction in mixed neuron (HSP70b mRNA [2]): (++) (5-8 fold)
- TNF-alpha Inhibition (TNF-α mRNA): (++) (41-60%)

Structure (SMILES): CC1(C)CN(Cc2ccccc2)C(c2ccc(S(C)(=O)=O)cc2)C(=Cc2cccc(N3CCOCC3)n2)C1=O (stereo not shown) [Compound 227, 1-Benzyl-2-(4-methanesulfonyl-phenyl)-5,5-dimethyl-3-[1-(6-morpholin-4-yl-pyridin-2-yl)-methylidene]-piperidin-4-one]
- HSP Induction in mixed neuron (HSP70b mRNA [2]): (++++) (>16 fold)
- TNF-alpha Inhibition (TNF-α mRNA): (++++) (>80%)

Structure (SMILES): CC1(C)CN(Cc2ccccc2)C(c2ccc(S(C)(=O)=O)cc2)C(=Cc2ccccn2)C1=O (stereo not shown) [Compound 229, 1-Benzyl-2-(4-methanesulfonyl-phenyl)-5,5-dimethyl-3-[1-pyridin-2-yl-methylidene]-piperidin-4-one]
- HSP Induction in mixed neuron (HSP70b mRNA [2]): (++) (5-8 fold)
- TNF-alpha Inhibition (TNF-α mRNA): (++++) (>80%)

Structure (SMILES): COc1ccc(OC)c(C2C(=Cc3cccc(N4CCN(C)CC4)n3)C(=O)C(C)(C)CN2Cc2ccc(C)cc2)c1 (stereo not shown) [Compound 234, 2-(2,5-Dimethoxy-phenyl)-5,5-dimethyl-1-(4-methyl-benzyl)-3-[1-[6-(4-methyl-piperazin-1-yl)-pyridin-2-yl]-methylidene]-piperidin-4-one]
- HSP Induction in mixed neuron (HSP70b mRNA [2]): (+++) (9-16 fold)
- TNF-alpha Inhibition (TNF-α mRNA): (+++) (61-80%)

Source: US20100190824A1, “Novel Substituted Piperidones as HSP Inducers” (priority 2007, published 2010)
